In the supplement of paper PMC10331698:
± gives the standard deviation of the averaged measurements.

Assays:
Test in all cases: level (log10 ratio to DMSO vehicle control); higher = higher biomarker level / cell amount than vehicle control
[1] = compound: FC(F)(F)C(F)(F)C(F)(F)CC1CO1 [1H,1H-Heptafluorobutyl epoxide]; details: in DMSO
Description: (§1)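 BioMAP Diversity Plus panel of 12 human primary cell co-culture systems (3C, 4H, LPS, SAg, BT, BF4T, BE3C, CASM3C, HDF3CGF, KF3CT, MyoF, Mphg). Compounds were added 1 h before stimulation and left for 24 h (MyoF 48 h; BT 72 h for soluble read-outs or 6 d for IgG). Biomarkers were read by ELISA, cytotoxicity by SRB, PBMC viability and proliferation by Alamar Blue. Each well value was divided by the mean of 8 DMSO control wells on the same plate and log10 transformed; duplicate blinded samples were tested at 4 concentrations.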

[2] = compound: O=S(=O)(O)CCC(F)(F)C(F)(F)C(F)(F)C(F)(F)C(F)(F)C(F)(F)F [6:2 Fluorotelomer sulfonic acid]; details: in DMSO
Description: as §1

[3] = compound: C=CC(=O)OCC(F)(F)C(F)(F)C(F)(F)COC(=O)C=C [1H,1H,5H,5H-Perfluoro-1,5-pentanediol diacrylate]; details: 6700 nM; in DMSO
Description: as §1

[4] = compound: FC(F)(F)C(F)(F)C(F)(F)C(F)(F)C(F)(F)C(F)(F)CC1CO1 [3-(Perfluorohexyl)-1,2-epoxypropane]; details: in DMSO
Description: as §1

[5] = compound: C=C(C)C(=O)OCCC(F)(F)C(F)(F)C(F)(F)C(F)(F)C(F)(F)C(F)(F)F [6:2 Fluorotelomer methacrylate]; details: in DMSO
Description: as §1

[6] = compound: O=S(=O)(O)C(F)(F)C(F)(F)C(F)(F)C(F)(F)C(F)(F)C(F)(F)C(F)(F)C(F)(F)C(F)(F)C(F)(F)F [Sodium perfluorodecanesulfonate]; details: in DMSO
Description: as §1

[7] = compound: NC(=O)C(F)(F)C(F)(F)C(F)(F)C(F)F; details: in DMSO
Description: as §1

Test System | level (log10) ([1]; 6700 nM) | level (log10) ([1]; 20000 nM) | level (log10) ([1]; 60000 nM) | level (log10) ([2]; 6700 nM) | level (log10) ([2]; 20000 nM) | level (log10) ([2]; 60000 nM) | level (log10) [3] | level (log10) ([4]; 6700 nM) | level (log10) ([4]; 20000 nM) | level (log10) ([4]; 60000 nM) | level (log10) ([5]; 6700 nM) | level (log10) ([5]; 20000 nM) | level (log10) ([5]; 60000 nM) | level (log10) ([6]; 1500 nM) | level (log10) ([6]; 4400 nM) | level (log10) ([6]; 13000 nM) | level (log10) ([6]; 40000 nM) | level (log10) ([7]; 6700 nM) | level (log10) ([7]; 20000 nM) | level (log10) ([7]; 60000 nM)
3C:CCL2/MCP-1 | 0.0005 ± 0.0064 | -0.011 ± 0.0071 | -0.0025 ± 0.023 | -0.0095 ± 0.021 | -0.017 ± 0.024 | 0.012 ± 0.0071 | -0.026 ± 0.0042 | 0.011 ± 0.02 | -0.004 ± 0.0014 | 0.021 ± 0.031 | 0.01 ± 0.051 | -0.0025 ± 0.016 | 0.022 ± 0.028 | 0.0315 ± 0.005 | -0.0195 ± 0.026 | 0.005 ± 0.033 | 0.0655 ± 0.032 | -0.01 ± 0.013 | -0.0135 ± 0.011 | 0.015 ± 0.042
HDF3CGF:Collagen III | -0.0355 ± 0.1 | -0.0515 ± 0.1 | -0.0555 ± 0.1 | -0.0555 ± 0.015 | -0.0115 ± 0.019 | 0.03 ± 0.093 | -0.177 ± 0.015 | -0.0075 ± 0.012 | -0.005 ± 0.0099 | 0.0155 ± 0.046 | -0.0285 ± 0.044 | -0.007 ± 0.041 | 0.003 ± 0.052 | -0.031 ± 0.042 | -0.074 ± 0.025 | 0.054 ± 0.0014 | 0.0205 ± 0.052 | -0.011 ± 0.0042 | -0.0155 ± 0.012 | -0.0165 ± 0.00071
CASM3C:CD142/Tissue Factor | -0.0165 ± 0.016 | -0.037 ± 0.027 | -0.039 ± 0.02 | -0.01 ± 0.013 | -0.0345 ± 0.021 | 0.007 ± 0.02 | -0.0325 ± 0.015 | -0.0085 ± 0.005 | -0.0415 ± 0.042 | 0.005 ± 0.073 | -0.0075 ± 0.033 | -0.0175 ± 0.029 | -0.0035 ± 0.0078 | 0.044 ± 0.025 | -0.0045 ± 0.021 | 0.0295 ± 0.036 | 0.082 ± 0.016 | -0.01 ± 0.017 | -0.001 ± 0.011 | -0.0075 ± 0.00071
CASM3C:PAI-I | -0.0045 ± 0.0092 | 0 ± 0.0057 | 0.005 ± 0.017 | -0.001 ± 0.023 | -0.0025 ± 0.015 | 0 ± 0.0099 | 0.002 ± 0.0042 | 0.0055 ± 0.005 | 0.002 ± 0.0085 | 0.017 ± 0.0042 | -0.01 ± 0.013 | -0.0055 ± 0.0021 | 0.007 ± 0.013 | -0.001 ± 0.0028 | -0.0165 ± 0.0064 | 0.009 ± 0.0057 | -0.0055 ± 0.021 | -0.005 ± 0.021 | -0.003 ± 0.0085 | -0.008 ± 0.0099
MyoF:SRB | -0.006 ± 0.017 | -0.0045 ± 0.0021 | -0.002 ± 0.0057 | -0.002 ± 0.0014 | 0.0005 ± 0.0092 | -0.0015 ± 0.0021 | -0.0205 ± 0.0035 | -0.007 ± 0.0057 | -0.005 ± 0.0057 | 0.0015 ± 0.011 | -0.0025 ± 0.0092 | -0.0015 ± 0.005 | 0.0085 ± 0.012 | 0.0205 ± 0.016 | 0.029 ± 0.0042 | 0.0115 ± 0.012 | -0.018 ± 0.0085 | -0.006 ± 0.0042 | -0.0175 ± 0.012 | -0.003
lMphg:CCL3/MIP-1alpha | -0.039 ± 0.0057 | -0.0135 ± 0.019 | 0.0135 ± 0.015 | 0.014 ± 0.021 | 0.072 ± 0.02 | 0.0565 ± 0.039 | -0.008 ± 0.0057 | -0.0345 ± 0.035 | -0.029 ± 0.034 | -0.009 ± 0.021 | 0.0005 ± 0.066 | -0.0185 ± 0.061 | 0.003 ± 0.04 | -0.008 ± 0.025 | 0.0015 ± 0.012 | 0.0195 ± 0.047 | 0.0425 ± 0.0035 | -0.039 ± 0.0099 | -0.0295 ± 0.018 | -0.006 ± 0.0028
MyoF:CXCL8/IL-8 | -0.012 ± 0.0028 | 0.006 ± 0.0099 | -0.021 ± 0.0042 | 0.007 ± 0.031 | 0 ± 0.018 | 0.016 ± 0.021 | 0.003 ± 0.014 | -0.019 | -0.0205 ± 0.025 | -0.005 ± 0.031 | -0.0055 ± 0.021 | 0.051 ± 0.0057 | 0.041 ± 0.0085 | -0.04 ± 0.0071 | -0.039 ± 0.0071 | -0.021 ± 0.023 | 0.02 ± 0.044 | -0.0285 ± 0.0092 | -0.0185 ± 0.028 | 0.018 ± 0.054
